Values quoted from earlier work as cited in patent publication US20060024740A1 (priority 2002, published 2006).

Experiments:
Tapesia yallundae = test system: Tapesia yallundae; design: key: S = Sensitive; R = Resistant
Tapesia acuformis = test system: Tapesia acuformis; design: key: S = Sensitive; R = Resistant

## COC(=O)Nc1nc2ccccc2[nH]1 [Carbendazim, carbendazim]
Tapesia yallundae
  Fungicide Sensitivity: R
Tapesia acuformis
  Fungicide Sensitivity: S and R

## Cc1cc(C2CC2)nc(Nc2ccccc2)n1 [Cyprodinil]
Tapesia yallundae
  Fungicide Sensitivity: S
Tapesia acuformis
  Fungicide Sensitivity: S

## CCCN(CCOc1c(Cl)cc(Cl)cc1Cl)C(=O)n1ccnc1 [Prochloraz]
Tapesia yallundae
  Fungicide Sensitivity: R and S
Tapesia acuformis
  Fungicide Sensitivity: S and R

## CC(C)(C)C(O)C(Oc1ccc(Cl)cc1)n1cncn1 (centres unmarked) [Triadimenol, triadimenol]
Tapesia yallundae
  Fungicide Sensitivity: R and S
Tapesia acuformis
  Fungicide Sensitivity: R
